The source made the active and inactive calls.
Experiments:
Format in all cases: functional
[1] = target: Serine/threonine-protein kinase 17A (Homo sapiens, UniProt Q9UEE5)
[2] = target: Protein kinase C gamma type (Homo sapiens, UniProt P05129)
[3] = target: 5'-AMP-activated protein kinase catalytic subunit alpha-1 (Homo sapiens, UniProt Q13131)
[4] = target: Vascular endothelial growth factor receptor 3 (Homo sapiens, UniProt P35916);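 further: value from a kinome-wide profiling panel, with FLT4 as the panel member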
[5] = target: T1, Apoptotic protease-activating factor 1 (Homo sapiens, UniProt O14727)
T1 sequence (O14727 whole entry): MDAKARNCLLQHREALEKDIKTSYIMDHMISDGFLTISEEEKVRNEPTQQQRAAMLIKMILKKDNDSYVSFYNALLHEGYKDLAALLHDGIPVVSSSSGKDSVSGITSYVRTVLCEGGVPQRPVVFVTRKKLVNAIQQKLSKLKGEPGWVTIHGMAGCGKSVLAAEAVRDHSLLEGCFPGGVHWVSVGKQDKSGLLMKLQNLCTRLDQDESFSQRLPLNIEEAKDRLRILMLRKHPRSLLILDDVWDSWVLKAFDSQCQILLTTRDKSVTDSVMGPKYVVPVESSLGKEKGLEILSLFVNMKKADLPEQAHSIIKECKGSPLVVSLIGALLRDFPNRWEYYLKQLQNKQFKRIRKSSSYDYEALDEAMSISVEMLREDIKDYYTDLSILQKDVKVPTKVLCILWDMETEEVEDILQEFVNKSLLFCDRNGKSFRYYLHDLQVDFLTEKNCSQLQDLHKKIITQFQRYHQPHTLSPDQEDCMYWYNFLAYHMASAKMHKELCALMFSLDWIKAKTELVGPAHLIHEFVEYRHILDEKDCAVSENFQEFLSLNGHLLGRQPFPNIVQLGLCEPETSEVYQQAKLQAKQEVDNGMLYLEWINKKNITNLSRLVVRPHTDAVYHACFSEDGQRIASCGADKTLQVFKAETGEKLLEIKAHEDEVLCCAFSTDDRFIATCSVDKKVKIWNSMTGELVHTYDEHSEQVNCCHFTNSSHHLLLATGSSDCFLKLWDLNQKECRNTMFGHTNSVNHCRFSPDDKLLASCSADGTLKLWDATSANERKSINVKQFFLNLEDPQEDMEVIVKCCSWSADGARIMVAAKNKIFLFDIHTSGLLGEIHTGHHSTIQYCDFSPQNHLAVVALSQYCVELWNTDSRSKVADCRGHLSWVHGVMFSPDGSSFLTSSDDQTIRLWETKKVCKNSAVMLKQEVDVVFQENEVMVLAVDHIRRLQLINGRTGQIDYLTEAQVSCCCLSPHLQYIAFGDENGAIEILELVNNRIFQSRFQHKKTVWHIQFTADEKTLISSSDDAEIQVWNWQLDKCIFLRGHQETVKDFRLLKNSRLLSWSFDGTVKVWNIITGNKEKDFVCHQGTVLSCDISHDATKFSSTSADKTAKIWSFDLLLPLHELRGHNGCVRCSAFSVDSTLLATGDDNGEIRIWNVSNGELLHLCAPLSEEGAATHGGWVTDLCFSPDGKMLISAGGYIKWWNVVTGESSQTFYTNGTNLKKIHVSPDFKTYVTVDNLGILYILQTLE

Sequence of Serine/threonine-protein kinase 17A (Q9UEE5 whole entry): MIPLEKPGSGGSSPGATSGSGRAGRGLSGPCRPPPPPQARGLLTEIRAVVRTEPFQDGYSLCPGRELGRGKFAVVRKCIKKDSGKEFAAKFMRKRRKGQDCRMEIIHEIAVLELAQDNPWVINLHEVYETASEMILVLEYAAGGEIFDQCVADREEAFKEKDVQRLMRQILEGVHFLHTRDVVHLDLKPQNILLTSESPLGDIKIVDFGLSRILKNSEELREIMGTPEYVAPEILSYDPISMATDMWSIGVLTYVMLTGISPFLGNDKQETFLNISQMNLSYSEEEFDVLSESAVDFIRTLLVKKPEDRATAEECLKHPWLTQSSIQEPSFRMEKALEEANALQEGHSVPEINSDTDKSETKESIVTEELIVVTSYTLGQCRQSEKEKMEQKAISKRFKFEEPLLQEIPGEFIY
Sequence of 5'-AMP-activated protein kinase catalytic subunit alpha-1 (Q13131 whole entry): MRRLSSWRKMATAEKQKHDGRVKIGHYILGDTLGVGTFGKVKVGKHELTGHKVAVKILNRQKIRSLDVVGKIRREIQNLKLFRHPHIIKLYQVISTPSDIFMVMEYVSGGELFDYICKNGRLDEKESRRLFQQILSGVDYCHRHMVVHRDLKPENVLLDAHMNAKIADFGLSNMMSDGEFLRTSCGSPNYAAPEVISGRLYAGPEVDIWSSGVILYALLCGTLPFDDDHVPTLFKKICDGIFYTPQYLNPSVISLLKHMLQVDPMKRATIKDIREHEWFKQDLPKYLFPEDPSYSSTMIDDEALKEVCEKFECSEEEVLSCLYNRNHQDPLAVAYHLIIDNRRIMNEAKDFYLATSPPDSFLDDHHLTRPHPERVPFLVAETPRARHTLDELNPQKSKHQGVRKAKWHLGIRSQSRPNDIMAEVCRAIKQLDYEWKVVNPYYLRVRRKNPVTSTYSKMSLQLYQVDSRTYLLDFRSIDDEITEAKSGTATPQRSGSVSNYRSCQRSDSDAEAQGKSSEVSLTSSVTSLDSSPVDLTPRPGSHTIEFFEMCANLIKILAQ
Sequence of Vascular endothelial growth factor receptor 3 (P35916 whole entry): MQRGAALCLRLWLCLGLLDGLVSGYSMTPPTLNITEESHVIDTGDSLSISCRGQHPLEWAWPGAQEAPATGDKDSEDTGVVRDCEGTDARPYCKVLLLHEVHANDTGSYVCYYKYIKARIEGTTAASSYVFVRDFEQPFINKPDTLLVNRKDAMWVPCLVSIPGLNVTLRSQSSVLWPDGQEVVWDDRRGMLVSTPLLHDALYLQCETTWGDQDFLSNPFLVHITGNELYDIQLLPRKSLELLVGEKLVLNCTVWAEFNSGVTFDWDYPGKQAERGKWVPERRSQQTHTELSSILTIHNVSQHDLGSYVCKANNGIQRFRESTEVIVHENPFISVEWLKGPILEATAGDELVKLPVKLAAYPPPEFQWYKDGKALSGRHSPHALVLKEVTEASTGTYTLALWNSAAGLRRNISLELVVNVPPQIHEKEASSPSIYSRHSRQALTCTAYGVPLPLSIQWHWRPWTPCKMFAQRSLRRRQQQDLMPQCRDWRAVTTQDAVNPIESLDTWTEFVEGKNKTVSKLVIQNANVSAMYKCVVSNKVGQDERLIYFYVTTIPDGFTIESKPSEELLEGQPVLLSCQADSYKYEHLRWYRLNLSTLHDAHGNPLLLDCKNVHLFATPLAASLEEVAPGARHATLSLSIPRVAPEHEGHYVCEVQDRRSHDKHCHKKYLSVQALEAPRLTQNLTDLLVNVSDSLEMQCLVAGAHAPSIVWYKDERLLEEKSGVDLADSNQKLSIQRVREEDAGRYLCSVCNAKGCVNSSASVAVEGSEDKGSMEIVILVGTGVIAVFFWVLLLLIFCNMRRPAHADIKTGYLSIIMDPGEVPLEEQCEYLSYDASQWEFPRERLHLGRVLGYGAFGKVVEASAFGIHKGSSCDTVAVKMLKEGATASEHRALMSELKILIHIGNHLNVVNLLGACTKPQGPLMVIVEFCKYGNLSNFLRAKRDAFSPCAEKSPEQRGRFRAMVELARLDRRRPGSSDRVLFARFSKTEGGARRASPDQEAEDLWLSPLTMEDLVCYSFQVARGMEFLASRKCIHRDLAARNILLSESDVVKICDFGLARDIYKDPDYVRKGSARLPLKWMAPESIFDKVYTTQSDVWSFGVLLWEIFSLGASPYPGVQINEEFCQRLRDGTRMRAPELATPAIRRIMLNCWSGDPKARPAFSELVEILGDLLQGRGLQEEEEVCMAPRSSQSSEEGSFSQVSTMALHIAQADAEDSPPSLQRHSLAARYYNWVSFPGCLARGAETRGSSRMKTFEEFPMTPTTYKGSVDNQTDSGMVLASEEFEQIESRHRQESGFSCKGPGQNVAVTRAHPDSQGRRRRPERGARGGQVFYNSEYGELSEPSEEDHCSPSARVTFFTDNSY

SMILES | Ki [1] | Ki [2] | Ki [3] | Ki [4] | IC50 [5]
Cn1cncc1C(OCc1c(-c2ccc(OC(F)(F)F)cc2)cc(C#N)c(=O)n1C)c1ccc(C#N)cc1 (stereo not given) | > 3.98 µM (inactive) | > 7.94 µM (inactive) | > 1.58 µM (inactive) | > 6.31 µM (inactive) | –
CCc1ccc(S(=O)(=O)/N=C2\C=C(NS(=O)(=O)c3ccccc3)C(=O)c3ccccc32)cc1 | – | – | – | – | 13.3 µM (active)
